Assay results published in the NIST ThermoML archive (doi:10.1021/je800894y).

Test: xn = mol fraction of the nth substance listed
Conditions: Liquid; for viscosity: Vibrating wire viscometry; for mass density: vibrating-wire apparatus

CC(C)CCCC(C)CCCC(C)CCCCC(C)CCCC(C)CCCC(C)C (configuration not stated) [2,6,10,15,19,23-hexamethyltetracosane] + O=C=O
Conditions | mass density [kg/m3] | viscosity [mPa·s]
303.15 K, 10060 kPa, x2 = 0.4233 | 814.8 | 9.12
303.15 K, 10070 kPa, x2 = 0.4233 | 815.3 | 9.17
303.15 K, 30380 kPa, x2 = 0.4233 | 828 | 12.7
303.15 K, 50510 kPa, x2 = 0.4233 | 839.2 | 17.3
303.15 K, 70400 kPa, x2 = 0.4233 | 849.3 | 23
303.15 K, 90250 kPa, x2 = 0.4233 | 856.5 | 30.5
303.15 K, 110380 kPa, x2 = 0.4233 | 862.1 | 40.1
303.15 K, 130280 kPa, x2 = 0.4233 | 867.8 | 52.3
303.15 K, 150080 kPa, x2 = 0.4233 | 869.4 | 67.8
303.15 K, 170210 kPa, x2 = 0.4233 | 882.8 | 85.9
303.17 K, 30190 kPa, x2 = 0.7882 | 854.3 | 2.36
303.17 K, 30740 kPa, x2 = 0.7882 | 847.4 | 2.24
303.17 K, 50100 kPa, x2 = 0.7882 | 863.4 | 2.79
303.17 K, 70730 kPa, x2 = 0.7882 | 877.8 | 3.43
303.17 K, 90490 kPa, x2 = 0.7882 | 890 | 4.15
303.17 K, 110640 kPa, x2 = 0.7882 | 901.1 | 4.95
303.17 K, 130570 kPa, x2 = 0.7882 | 911 | 5.91
303.17 K, 151340 kPa, x2 = 0.7882 | 922.8 | 6.94
303.17 K, 170570 kPa, x2 = 0.7882 | 934.8 | 8.13
303.18 K, 10600 kPa, x2 = 0.6039 | 823.9 | 4.92
303.18 K, 30810 kPa, x2 = 0.6039 | 838.1 | 6.58
303.18 K, 50820 kPa, x2 = 0.6039 | 850.4 | 8.58
303.18 K, 70800 kPa, x2 = 0.6039 | 861 | 11
303.18 K, 91100 kPa, x2 = 0.6039 | 871.1 | 14
303.18 K, 100670 kPa, x2 = 0.6039 | 874.8 | 15.6
303.18 K, 111110 kPa, x2 = 0.6039 | 879.9 | 17.5
303.18 K, 130850 kPa, x2 = 0.6039 | 888.1 | 21.7
303.18 K, 150500 kPa, x2 = 0.6039 | 897.9 | 26.5
303.18 K, 170440 kPa, x2 = 0.6039 | 910.5 | 32
348.11 K, 10450 kPa, x2 = 0.6039 | 787.7 | 1.92
348.11 K, 10480 kPa, x2 = 0.6039 | 788.1 | 1.92
348.11 K, 30310 kPa, x2 = 0.6039 | 806 | 2.49
348.11 K, 50270 kPa, x2 = 0.6039 | 820.7 | 3.13
348.11 K, 70180 kPa, x2 = 0.6039 | 833.3 | 3.85
348.11 K, 90320 kPa, x2 = 0.6039 | 844.4 | 4.68
348.11 K, 110880 kPa, x2 = 0.6039 | 854.6 | 5.64
348.11 K, 130860 kPa, x2 = 0.6039 | 863.7 | 6.7
348.11 K, 150870 kPa, x2 = 0.6039 | 872.1 | 7.9
348.11 K, 170910 kPa, x2 = 0.6039 | 879.8 | 9.28
348.25 K, 10070 kPa, x2 = 0.4233 | 783.6 | 2.99
348.25 K, 10100 kPa, x2 = 0.4233 | 783.4 | 2.98
348.25 K, 30390 kPa, x2 = 0.7882 | 806 | 1.08
348.25 K, 30440 kPa, x2 = 0.4233 | 799.2 | 3.95
348.25 K, 30610 kPa, x2 = 0.7882 | 806.9 | 1.07
348.25 K, 50540 kPa, x2 = 0.7882 | 827 | 1.34
348.25 K, 50590 kPa, x2 = 0.4233 | 812.2 | 5.1
348.25 K, 70530 kPa, x2 = 0.4233 | 823.5 | 6.42
348.25 K, 70650 kPa, x2 = 0.7882 | 844 | 1.61
348.25 K, 90610 kPa, x2 = 0.4233 | 833.7 | 7.98
348.25 K, 90680 kPa, x2 = 0.7882 | 858.4 | 1.91
348.25 K, 110350 kPa, x2 = 0.7882 | 870.8 | 2.22
348.25 K, 110610 kPa, x2 = 0.4233 | 842.8 | 9.83
348.25 K, 130400 kPa, x2 = 0.4233 | 851.3 | 11.9
348.25 K, 130530 kPa, x2 = 0.7882 | 882.3 | 2.57
348.25 K, 150600 kPa, x2 = 0.7882 | 892.7 | 2.94
348.25 K, 150670 kPa, x2 = 0.4233 | 859.3 | 14.5
348.25 K, 169670 kPa, x2 = 0.4233 | 866.3 | 17.3
348.25 K, 170310 kPa, x2 = 0.7882 | 902 | 3.34
398.13 K, 10940 kPa, x2 = 0.6039 | 749.2 | 1.01
398.13 K, 11100 kPa, x2 = 0.6039 | 748.9 | 1
398.13 K, 30870 kPa, x2 = 0.6039 | 771.8 | 1.3
398.13 K, 50550 kPa, x2 = 0.6039 | 789.2 | 1.61
398.13 K, 70810 kPa, x2 = 0.6039 | 804.2 | 1.95
398.13 K, 91230 kPa, x2 = 0.6039 | 817.2 | 2.31
398.13 K, 110700 kPa, x2 = 0.6039 | 828.2 | 2.69
398.13 K, 131240 kPa, x2 = 0.6039 | 838.7 | 3.12
398.13 K, 150740 kPa, x2 = 0.6039 | 847.7 | 3.57
398.13 K, 170660 kPa, x2 = 0.6039 | 856.2 | 4.08
398.31 K, 10790 kPa, x2 = 0.4233 | 749 | 1.38
398.31 K, 10830 kPa, x2 = 0.4233 | 755.3 | 1.39
398.31 K, 30180 kPa, x2 = 0.4233 | 768.1 | 1.79
398.31 K, 50350 kPa, x2 = 0.4233 | 784 | 2.24
398.31 K, 70500 kPa, x2 = 0.4233 | 797.4 | 2.74
398.31 K, 90450 kPa, x2 = 0.4233 | 808.9 | 3.3
398.31 K, 110290 kPa, x2 = 0.4233 | 819.1 | 3.92
398.31 K, 130350 kPa, x2 = 0.4233 | 828.4 | 4.62
398.31 K, 150520 kPa, x2 = 0.4233 | 837.2 | 5.4
398.31 K, 170000 kPa, x2 = 0.4233 | 845 | 6.24
398.33 K, 30150 kPa, x2 = 0.7882 | 760.4 | 0.62
398.33 K, 30500 kPa, x2 = 0.7882 | 759.9 | 0.62
398.33 K, 50500 kPa, x2 = 0.7882 | 786.7 | 0.78
398.33 K, 70580 kPa, x2 = 0.7882 | 807.3 | 0.94
398.33 K, 90510 kPa, x2 = 0.7882 | 824.2 | 1.1
398.33 K, 110760 kPa, x2 = 0.7882 | 839 | 1.28
398.33 K, 130550 kPa, x2 = 0.7882 | 851.6 | 1.46
398.33 K, 150620 kPa, x2 = 0.7882 | 863.2 | 1.65
398.33 K, 170310 kPa, x2 = 0.7882 | 873.6 | 1.84
448.13 K, 10630 kPa, x2 = 0.6039 | 713.1 | 0.69
448.13 K, 11010 kPa, x2 = 0.6039 | 713.3 | 0.68
448.13 K, 30730 kPa, x2 = 0.6039 | 739.7 | 0.89
448.13 K, 50590 kPa, x2 = 0.6039 | 759.8 | 1.09
448.13 K, 70380 kPa, x2 = 0.6039 | 776.6 | 1.22
448.13 K, 91380 kPa, x2 = 0.6039 | 791.8 | 1.43
448.13 K, 111050 kPa, x2 = 0.6039 | 804.5 | 1.63
448.13 K, 130810 kPa, x2 = 0.6039 | 815.7 | 1.84
448.13 K, 150960 kPa, x2 = 0.6039 | 826 | 2.08
448.13 K, 171000 kPa, x2 = 0.6039 | 835.3 | 2.35
448.35 K, 11450 kPa, x2 = 0.4233 | 715.2 | 0.8
448.35 K, 11570 kPa, x2 = 0.4233 | 720.6 | 0.81
448.35 K, 30330 kPa, x2 = 0.4233 | 737.6 | 1.04
448.35 K, 50410 kPa, x2 = 0.4233 | 756.5 | 1.3
448.35 K, 70450 kPa, x2 = 0.4233 | 771.8 | 1.57
448.35 K, 90670 kPa, x2 = 0.4233 | 785.2 | 1.86
448.35 K, 110310 kPa, x2 = 0.4233 | 796.6 | 2.17
448.35 K, 130440 kPa, x2 = 0.4233 | 807 | 2.52
448.35 K, 150510 kPa, x2 = 0.4233 | 816.5 | 2.88
448.35 K, 169900 kPa, x2 = 0.4233 | 824.8 | 3.28
448.41 K, 30160 kPa, x2 = 0.7882 | 714.5 | 0.41
448.41 K, 30820 kPa, x2 = 0.7882 | 714.9 | 0.41
448.41 K, 50450 kPa, x2 = 0.7882 | 748 | 0.52
448.41 K, 70350 kPa, x2 = 0.7882 | 772.5 | 0.63
448.41 K, 90420 kPa, x2 = 0.7882 | 792.3 | 0.74
448.41 K, 110590 kPa, x2 = 0.7882 | 809.1 | 0.85
448.41 K, 130360 kPa, x2 = 0.7882 | 823.3 | 0.97
448.41 K, 150480 kPa, x2 = 0.7882 | 836.2 | 1.1
448.41 K, 169720 kPa, x2 = 0.7882 | 847.5 | 1.22
